Measured values as given in patent publication US20140024582A1, “STABLE INSULIN FORMULATIONS AND METHODS OF MAKING AND USING THEREOF” (Genecopoeia, Inc., priority 2010, published 2014).
Like-named read-outs stand apart in the source and are kept apart here.

Experiments:
Type in all cases: physicochemical
[1] = Total degradation products of porcine insulin formulations by C18 reverse-phase HPLC
Protocol: Six test formulations were prepared at proline concentrations of 0, 1.6 M and 2.8 M with acetone concentrations at 0 and 3 mg/ml, as listed in the following table. Those test formulations were stored at room temperature in the dark. At times, aliquots were withdrawn to be analyzed on C18 reverse-phase HPLC to measure total degradation products, as summarized in the table below.

[2] = Visual precipitation of insulin solutions stored at room temperature in the dark
Protocol: Insulin was dissolved in 0.10 N hydrochloric acid (5 μL per milligram of insulin) and made into a series of solutions at its concentration of 4.0 mg/ml with various additives, and the pH was adjusted to pH 7.4 using 0.05 N sodium hydroxide. Samples were kept at room temperature (25° C.) in the dark.
Zinc-free recombinant human insulin (16 mg) was dissolved in 0.10 N hydrochloric acid (70 microliters), and to this insulin was added 6.0 ml of the above proline solution. This stock solution was further made into a series of solutions at its concentration of 2.0 mg/ml with various additives at pH 7.4. Samples were kept at room temperature (25° C.) in the dark.
After six months, there were no precipitates visible at the bottom, and the solutions were all visually clear. As shown in Example 1 above, insulin without proline forms precipitates in a few days.
Repeat preparation as in Example 2 at proline concentration of 1.0 M, 1.5 M, 2.4 M and 7.0 M, without glycerol and m-cresol. All samples were stored at room temperature in the dark over six month to find no visible insulin precipitate.

[3] = Covalent insulin dimers quantified by SEC HPLC during storage; settings: zinc-free insulin and zinc-insulin with EDTA, Example 4
Protocol: A group of stock solutions were prepared: proline (6.25 M) in water, EDTA (0.10 M, pH 7.4), glycerol(320 mg/ml) containing m-Cresol (25 mg/ml) in water, sodium insulin(10 mg/ml) in phosphate buffer (25 mM, pH 7.4). Eight formulations were prepared using those stock solutions as in the table below.
All the eight formulations were kept at room temperature in the dark. At times, aliquots were withdrawn for HPLC analysis (Injection volume: 0.10 ml).
During the storage, covalent insulin dimers were quantified by SEC HPLC, and the results are summarized below.
Column: Protein Pak, 125 Å, Waters, WAT084601
Mobile Phase: 20% Acetonitrile, 15% acetic acid, 65% water

CC(C)=O [acetone]
Effect on total amount of degradation side products ([1]; porcine insulin, period of 8 weeks, Example 5): further enhances the stabilizing effect of proline

N=C(N)NCCC[C@H](N)C(=O)O [arginine]
Effect of arginine on precipitation of monomeric insulin ([2]; arginine at 0.5 M, Example 1): has ability to deter monomeric insulin from precipitation

O=C(O)[C@@H]1CCCN1 [proline]
Effect of proline on precipitation of monomeric insulin ([2]; proline 2.4 M, Example 2): ability to deter monomeric insulin from precipitation | Effect on formation of high molecular weight insulin degradation side products [3]: reduces formation of high molecular weight insulin degradation side products | Effect on total amount of degradation side products [1]: reduces total amount of degradation side products
